Molecular target: T1, human glucagon receptor (Homo sapiens, UniProt P47871)
T1 construct: made in house; host or cells: FreeStyle CHO cells, transient transfection with pMSRαneo/hGCGR; membrane fraction (35,000 rpm pellet)
Experiment: Glucagon binding inhibitory activity ([125I]-glucagon binding to glucagon receptor membrane protein)
Details: human glucagon receptor membrane protein, [125I]-glucagon, 90 min room temperature
Protocol: The glucagon binding inhibitory action of the compound of the present invention was evaluated by the following method.
(1) Cloning of Human Glucagon Receptor Gene
Human glucagon receptor gene was cloned by PCR reaction using human pancreas Marathon-ready cDNA (Clontech) as a template and the following primer set.
PCR reaction was performed using Advantage 2 polymerase (Clontech) and according to the attached protocol. The obtained PCR product was electrophoresed on an agarose gel (1%). An about 1.4 kb of DNA fragment containing a glucagon receptor gene was recovered from the gel and digested with restriction enzymes EcoRI and NotI. DNA treated with the restriction enzymes was electrophoresed on an agarose gel (1%). An about 1.4 kb of DNA fragment was recovered and ligated to plasmid pMSRαneo digested with restriction enzymes EcoRI and NotI to construct a human-type glucagon receptor expression plasmid DNA “pMSRαneo/hGCGR”.
(2) Preparation of Glucagon Receptor Membrane Protein
A human-type glucagon receptor was expressed using FreeStyle CHO Expression System (Invitrogen). A transient expression in FreeStyle CHO cell was performed using a human-type glucagon receptor expression plasmid DNA “pMSRαneo/hGCGR” and according to the manual attached to the FreeStyle CHO Expression System. The above-mentioned DNA was transfected and the cultured with shaking for 2 days (37° C., 8% CO2, 125 rpm). 2400 ml of culture medium was centrifuged at 2,000 rpm for 10 min and the cells were collected. The collected cells were washed with PBS, suspended in homogenate buffer [10 mM NaHCO3 (pH 7.4), 1 mM EDTA, Complete EDTA-free (Roche, 1 tablet/50 ml)] and disrupted by polytron cell disrupter (Kinematica AG). Disruption solution was centrifuged at 2,000 rpm for 10 min and the supernatant was collected.
(3) Measurement of Glucagon Binding Inhibitory Activity
The plate was stood for 90 min at room temperature. The reaction solution was transferred from the reaction plate to a 96 well unifilter GF/C plate (Perkin Elmer Inc.) using a cell harvester (Perkin Elmer Inc.) and the membrane fraction was collected on the filter by suction. The filter was presoaked in 2 mg/ml of polyethyleneimine to prevent non-specific adsorption of labeled ligand. The filter was washed 4 times with a reaction buffer and dried for 2 hr at 42° C. To each well was added 25 μl of scintillator (MicroScint0; Perkin Elmer Inc.), and the fluorescence amount was measured using a microplate scintillation counter (TopCount NXT™; Perkin Elmer Inc.).
In addition, the inhibitory rate (%) of the well added with the test compound (10 μM; containing 0.4% DMSO) was calculated, using the reaction rate of the well added only with 0.4% DMSO as 0% inhibitory rate, and the reaction rate of the well added with non-labeled glucagon (final concentration 1 μM) as 100% inhibitory rate.

T1 sequence (P47871 26-477): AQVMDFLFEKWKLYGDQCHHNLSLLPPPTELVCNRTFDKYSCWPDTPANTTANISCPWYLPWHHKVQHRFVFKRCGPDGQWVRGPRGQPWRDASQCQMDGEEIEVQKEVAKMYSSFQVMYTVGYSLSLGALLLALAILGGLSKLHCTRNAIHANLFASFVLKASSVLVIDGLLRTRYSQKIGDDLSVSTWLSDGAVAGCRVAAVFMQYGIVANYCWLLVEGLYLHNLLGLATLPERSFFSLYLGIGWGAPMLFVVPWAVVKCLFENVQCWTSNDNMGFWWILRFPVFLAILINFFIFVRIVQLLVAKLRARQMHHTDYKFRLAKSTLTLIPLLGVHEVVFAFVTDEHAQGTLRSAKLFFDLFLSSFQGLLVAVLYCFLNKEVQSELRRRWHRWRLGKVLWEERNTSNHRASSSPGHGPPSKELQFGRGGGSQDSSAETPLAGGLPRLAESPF

| IC50 | SMILES |
| --- | --- |
| 2300 nM | Cc1nn(Cc2ccccc2)cc1C(Nc1ccc(C(=O)NCCC(=O)O)cc1)C1CCCCC1 (stereo not shown) [Example 41, 3-{[(4-{[(1-benzyl-3-methyl-1H-pyrazol-4-yl)(cyclohexyl)methyl]amino}phenyl)carbonyl]amino}propanoic acid] |

Same assay, conditions: test compound 10 μM; 0.4% DMSO = 0%, non-labeled glucagon 1 μM = 100%; read-out: inhibitory rate (%) at 10 μM

| SMILES | inhibition at 10 µM |
| --- | --- |
| COc1ccc(-n2cc(C(Nc3ccc(C(=O)NCCC(=O)O)cc3)C3CCCCC3)c(C)n2)cc1 (stereo not shown) [Example 23, 3-({[4-({cyclohexyl[1-(4-methoxyphenyl)-3-methyl-1H-pyrazol-4-yl]methyl}amino)phenyl]carbonyl}amino)propanoic acid] | 71% |
| Cc1nn(-c2ccc(OC(F)(F)F)cc2)cc1C(Nc1ccc(C(=O)NCCC(=O)O)cc1)C1CCCCC1 (stereo not shown) [Example 25, 3-[({4-[(cyclohexyl{3-methyl-1-[4-(trifluoromethoxy)phenyl]-1H-pyrazol-4-yl}methyl)amino]phenyl}carbonyl)amino]propanoic acid] | 78% |
| Cc1nn(-c2ccc(C(F)(F)F)cc2)cc1C(Nc1ccc(C(=O)NCCC(=O)O)cc1)C1CCCCC1 (stereo not shown) [Example 27, 3-[({4-[(cyclohexyl{3-methyl-1-[4-(trifluoromethyl)phenyl]-1H-pyrazol-4-yl}methyl)amino]phenyl}carbonyl)amino]propanoic acid] | 70% |
| Cc1nn(-c2ncc(C(F)(F)F)cc2Cl)cc1C(Nc1ccc(C(=O)NCCC(=O)O)cc1)C1CCCCC1 (stereo not shown) [Example 31, 3-{[(4-{[{1-[3-chloro-5-(trifluoromethyl)pyridin-2-yl]-3-methyl-1H-pyrazol-4-yl}(cyclohexyl)methyl]amino}phenyl)carbonyl]amino}propanoic acid] | 67% |
| Cc1nn(Cc2ccccc2)cc1C(Nc1ccc(C(=O)NCCC(=O)O)cc1)C1CCCCC1 (stereo not shown) [Example 41, 3-{[(4-{[(1-benzyl-3-methyl-1H-pyrazol-4-yl)(cyclohexyl)methyl]amino}phenyl)carbonyl]amino}propanoic acid] | 60% |
| CCC(C)(C)n1cc(C(Nc2ccc(C(=O)NCCC(=O)O)cc2)C2CCCCC2)c(C)n1 (stereo not shown) [Example 43, 3-({[4-({cyclohexyl[1-(1,1-dimethylpropyl)-3-methyl-1H-pyrazol-4-yl]methyl}amino)phenyl]carbonyl}amino)propanoic acid] | 54% |
| COc1ccc(-n2cc(C(CC(C)C)Nc3ccc(C(=O)NCCC(=O)O)cc3)c(C3CC3)n2)cc1 (stereo not shown) [Example 44, 3-({[4-({1-[3-cyclopropyl-1-(4-methoxyphenyl)-1H-pyrazol-4-yl]-3-methylbutyl}amino)phenyl]carbonyl}amino)propanoic acid] | 69% |
| COc1ccc(-n2cc(C(CC(C)C)Nc3ccc(C(=O)N(C)CCC(=O)O)cc3)c(C3CC3)n2)cc1 (stereo not shown) [Example 45, 3-[{[4-({1-[3-cyclopropyl-1-(4-methoxyphenyl)-1H-pyrazol-4-yl]-3-methylbutyl}amino)phenyl]carbonyl}(methyl)amino]propanoic acid] | 60% |
| COc1ccc(-n2cc(C(Nc3ccc(C(=O)NCCC(=O)O)cc3)C3CCCCC3)c(C3CC3)n2)cc1 (stereo not shown) [Example 46, 3-({[4-({cyclohexyl[3-cyclopropyl-1-(4-methoxyphenyl)-1H-pyrazol-4-yl]methyl}amino)phenyl]carbonyl}amino)propanoic acid] | 71% |
| COc1ccc(-n2cc(C(Nc3ccc(C(=O)N(C)CCC(=O)O)cc3)C3CCCCC3)c(C3CC3)n2)cc1 (stereo not shown) [Example 47, 3-[{[4-({cyclohexyl[3-cyclopropyl-1-(4-methoxyphenyl)-1H-pyrazol-4-yl]methyl}amino)phenyl]carbonyl}(methyl)amino]propanoic acid] | 66% |
| CCc1nn(-c2ccc(OC)cc2)cc1C(CC(C)C)Nc1ccc(C(=O)NCCC(=O)O)cc1 (stereo not shown) [Example 48, 3-({[4-({1-[3-ethyl-1-(4-methoxyphenyl)-1H-pyrazol-4-yl]-3-methylbutyl}amino)phenyl]carbonyl}amino)propanoic acid] | 63% |
| CCc1nn(-c2ccc(OC)cc2)cc1C(Nc1ccc(C(=O)NCCC(=O)O)cc1)C1CCCCC1 (stereo not shown) [Example 50, 3-({[4-({cyclohexyl[3-ethyl-1-(4-methoxyphenyl)-1H-pyrazol-4-yl]methyl}amino)phenyl]carbonyl}amino)propanoic acid] | 68% |

The remaining lines, values ahead:

| inhibition at 10 µM | SMILES |
| --- | --- |
| 73% | COc1ccc(-n2cc(C(Nc3ccc(C(=O)N(C)CCC(=O)O)cc3)C3CCCCC3)c(C)n2)cc1 (stereo not shown) [Example 24, 3-[{[4-({cyclohexyl[1-(4-methoxyphenyl)-3-methyl-1H-pyrazol-4-yl]methyl}amino)phenyl]carbonyl}(methyl)amino]propanoic acid] |
| 72% | Cc1nn(-c2ccc(OC(F)(F)F)cc2)cc1C(Nc1ccc(C(=O)N(C)CCC(=O)O)cc1)C1CCCCC1 (stereo not shown) [Example 26, 3-[({4-[(cyclohexyl{3-methyl-1-[4-(trifluoromethoxy)phenyl]-1H-pyrazol-4-yl}methyl)amino]phenyl}carbonyl)(methyl)amino]propanoic acid] |
| 71% | Cc1nn(-c2ccc(C(F)(F)F)cc2)cc1C(Nc1ccc(C(=O)N(C)CCC(=O)O)cc1)C1CCCCC1 (stereo not shown) [Example 28, 3-[({4-[(cyclohexyl{3-methyl-1-[4-(trifluoromethyl)phenyl]-1H-pyrazol-4-yl}methyl)amino]phenyl}carbonyl)(methyl)amino]propanoic acid] |
| 77% | COCc1nn(-c2ccc(C(F)(F)F)cn2)cc1C(Nc1ccc(C(=O)NCCC(=O)O)cc1)C1CCCCC1 (stereo not shown) [Example 29, 3-[({4-[(cyclohexyl{3-(methoxymethyl)-1-[5-(trifluoromethyl)pyridin-2-yl]-1H-pyrazol-4-yl}methyl)amino]phenyl}carbonyl)amino]propanoic acid] |
| 75% | COCc1nn(-c2ccc(C(F)(F)F)cn2)cc1C(Nc1ccc(C(=O)N(C)CCC(=O)O)cc1)C1CCCCC1 (stereo not shown) [Example 30, 3-[({4-[(cyclohexyl{3-(methoxymethyl)-1-[5-(trifluoromethyl)pyridin-2-yl]-1H-pyrazol-4-yl}methyl)amino]phenyl}carbonyl)(methyl)amino]propanoic acid] |
| 59% | Cc1nn(-c2ncc(C(F)(F)F)cc2Cl)cc1C(Nc1ccc(C(=O)N(C)CCC(=O)O)cc1)C1CCCCC1 (stereo not shown) [Example 32, 3-{[(4-{[{1-[3-chloro-5-(trifluoromethyl)pyridin-2-yl]-3-methyl-1H-pyrazol-4-yl}(cyclohexyl)methyl]amino}phenyl)carbonyl](methyl)amino}-propanoic acid] |
| 75% | COCc1nn(-c2ccc(OC(F)(F)F)cc2)cc1C(Nc1ccc(C(=O)NCCC(=O)O)cc1)C1CCCCC1 (stereo not shown) [Example 33, 3-[({4-[(cyclohexyl{3-(methoxymethyl)-1-[4-(trifluoromethoxy)phenyl]-1H-pyrazol-4-yl}methyl)amino]phenyl}carbonyl)amino]propanoic acid] |
| 79% | COCc1nn(-c2ccc(OC(F)(F)F)cc2)cc1C(Nc1ccc(C(=O)N(C)CCC(=O)O)cc1)C1CCCCC1 (stereo not shown) [Example 34, 3-[({4-[(cyclohexyl{3-(methoxymethyl)-1-[4-(trifluoromethoxy)phenyl]-1H-pyrazol-4-yl}methyl)amino]phenyl}carbonyl)(methyl)amino]propanoic acid] |
| 75% | COCc1nn(-c2ccc(OC)cc2)cc1C(Nc1ccc(C(=O)NCCC(=O)O)cc1)C1CCCCC1 (stereo not shown) [Example 35, 3-({[4-({cyclohexyl[3-(methoxymethyl)-1-(4-methoxyphenyl)-1H-pyrazol-4-yl]methyl}amino)phenyl]carbonyl}amino)propanoic acid] |
| 69% | COCc1nn(-c2ccc(OC)cc2)cc1C(Nc1ccc(C(=O)N(C)CCC(=O)O)cc1)C1CCCCC1 (stereo not shown) [Example 36, 3-[{[4-({cyclohexyl[3-(methoxymethyl)-1-(4-methoxyphenyl)-1H-pyrazol-4-yl]methyl}amino)phenyl]carbonyl}(methyl)amino]propanoic acid] |
| 70% | COCc1nn(-c2ccccc2)cc1C(Nc1ccc(C(=O)NCCC(=O)O)cc1)C1CCCCC1 (stereo not shown) [Example 37, 3-({[4-({cyclohexyl[3-(methoxymethyl)-1-phenyl-1H-pyrazol-4-yl]methyl}amino)phenyl]carbonyl}amino)propanoic acid] |
| 53% | COCc1nn(-c2ccccc2)cc1C(Nc1ccc(C(=O)N(C)CCC(=O)O)cc1)C1CCCCC1 (stereo not shown) [Example 38, 3-[{[4-({cyclohexyl[3-(methoxymethyl)-1-phenyl-1H-pyrazol-4-yl]methyl}amino)phenyl]carbonyl}(methyl)amino]propanoic acid] |
